US5602176A, “Phenyl carbamate” (priority 1987, dated 1997)
Like-named read-outs stand apart in the source and are kept apart here.

How the values were obtained:
[1] = biological target: T1, AChE preparations of different rat brain regions (Rattus norvegicus, UniProt P37136); test: Acetylcholinesterase inhibition in different rat brain regions (in vitro, Ellman); format: biochemical; conditions: table 1
T1 construct: Rat brain tissue is homogenized in cold phosphate buffer pH 7.3; from tissue; host or cells: rat brain (cortex, hippocampus, striatum), supernatant of Triton X-100 homogenate
Experimental: Acetylcholinesterase inhibition in different rat brain regions
AChE preparations of different rat brain regions (Cortex, hippocampus and striatum) are used in this test and the IC50 (inhibitory concentrations in μM) are determined. The enzyme preparations are preincubated with the inhibitor 15 minutes before the determination.
(§1) The AChE activity is measured according to the method described by Ellman (Arch. Biochem. Biophys. 82, 70, 1959). Rat brain tissue is homogenized in cold phosphate buffer pH 7.3 (0.25 mM) containing 0.1% of Triton X-100. After centrifugation aliquots of the clear supernatant is used as enzyme source. The enzyme is preincubated with different concentrations of the inhibitor. After different times, substrate (acetylthiocholinjodide 0.5 mM) is added and the remaining activity determined.

[2] = biological target: AChE (Rattus norvegicus, UniProt P37136); format: in vivo; design: from tissue; host or cells: male OFA rats: cortex, hippocampus, striatum, pons/medulla, heart, blood; conditions: Transdermal 30 μmol/kg
Experimental: as §1
The compounds are dissolved in or diluted with n-heptane to a concentration of 1 or 3 mg/20 μl. […] The application place is immediately covered using a thin plastic film and a plaster. The animal has no access to the plaster. Various times after the administration the animals are killed by decapitation and the remaining AChE activity is measured.

[3] = test system: rat hippocampal slices (indirect method for acetylcholinesterase (AChE) inhibition); test: Electrically evoked 3H-acetylcholine release from rat hippocampal slices; format: cell-based
Excerpt: Electrically evoked ^3 H-acetylcholine release from rat hippocampal slices
Electrically evoked ^3 H-acetylcholine (^3 H-ACh) release from rat hippocampal slices is a functional in vitro model to investigate presynaptic muscarinic autoreceptor agonists and antagonists. This model can also be used as an indirect method to evaluate drugs which inhibit acetylcholinesterase (AChE). Inhibition of AChE activity leads to the accumulation of endogenous ACh which then interacts with presynaptic muscarinic autoreceptors and inhibits further release of ^3 H-ACh.
Rat hippocampal slices (Wistar strain, 180-200 g) are prepared by chopping into cross sections whole hippocampal slices at a distance of 0.3 mm with a McIlwain tissue chopper. Hippocampal slices obtained from 3 rats are incubated for 30 min. at 23° C. in 6 ml Krebs-Ringer containing 0.1 uCi ^3 H-choline and transferred into the superfusion chamber and superfused with Kreb's medium containing 10 μM hemicholinium-3 at a rate of 1.2 ml/min. at 30° C. Collection of 5 min. fractions of the superfusate begins after 60 min. of superfusion. Two periods of electrical stimulation (2 Hz rectangular pulses 2 msec, 10 mA, 2 min.) are applied after 70 min. (S1) and after 125 min. (S2) of superfusion. […] At the end of the experiments the slices are solubilized in conc. formic acid and tritium content is determined in the superfusate and the solubilized slices. Tritium outflow is expressed as the fractional rate of tritium outflow per min. Electrically evoked tritium outflow is calculated by subtraction of the extrapolated basal tritium outflow from the total tritium outflow during the two min. of electrical stimulation and the following 13 min. and is expressed as percent of the tritium content at the beginning of the sample collection. Drug effects on stimulation evoked tritium outflow are expressed as the ratios S2 /S1. All experiments are run in dublicates using a programmable 12 channel superfusion system. For the calculation a computer program is used.

Chain of AChE (P37136 32-614): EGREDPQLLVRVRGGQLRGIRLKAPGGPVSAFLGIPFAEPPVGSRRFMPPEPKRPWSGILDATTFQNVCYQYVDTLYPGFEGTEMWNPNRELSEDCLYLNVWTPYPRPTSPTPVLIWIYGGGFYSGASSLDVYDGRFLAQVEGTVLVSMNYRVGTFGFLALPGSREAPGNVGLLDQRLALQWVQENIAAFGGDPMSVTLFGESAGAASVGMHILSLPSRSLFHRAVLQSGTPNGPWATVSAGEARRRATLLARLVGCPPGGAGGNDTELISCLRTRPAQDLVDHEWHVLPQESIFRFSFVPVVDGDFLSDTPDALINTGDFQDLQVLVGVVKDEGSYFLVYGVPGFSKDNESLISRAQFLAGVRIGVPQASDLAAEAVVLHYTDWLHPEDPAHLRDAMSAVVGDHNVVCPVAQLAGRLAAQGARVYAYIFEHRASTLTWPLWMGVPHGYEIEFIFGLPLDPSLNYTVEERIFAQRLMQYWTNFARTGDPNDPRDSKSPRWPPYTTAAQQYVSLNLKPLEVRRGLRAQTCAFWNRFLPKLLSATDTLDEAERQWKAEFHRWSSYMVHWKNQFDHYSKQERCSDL
T1 sequence (P37136 32-614): as above

SMILES: CCN(C)C(=O)Oc1cccc([C@H](C)N(C)C)c1 [Compound A, (S)-N-ethyl-3-[(1-dimethylamino)ethyl]-N-methyl-phenyl-carbamate]
- AChE inhibition in vitro, comparison in words [1]: slightly superior than that with racemate C
- AChE activity in % of controls ± SD, Blood ([2]; 0.5 hours after treatment): 71.3 ± 12.3 % of controls
- AChE activity in % of controls ± SD, Cortex ([2]; 6 hours after treatment): 42.4 ± 11.7 % of controls
- AChE activity in % of controls ± SD, Striatum ([2]; 6 hours after treatment): 65.9 ± 15.5 % of controls
- AChE activity in % of controls ± SD, Blood ([2]; 24 hours after treatment): 78.1 ± 17.8 % of controls
- antagonism of the inhibitory effect by atropine [3]: can be antagonized by atropine
- inhibition at 100 µM ([3]; Rattus norvegicus, 3 h, 100 μM, read-out: inhibition of electrically evoked 3H-ACh release from hippocampal slices): ~40%
